US7732199B2, “Process for making transplantable cardiomyocytes from human embryonic stem cells” (Geron Corporation, priority 2001, dated 2010)

Tests used:
[1] = system: hES cells of the H1 or H9 line being cultured as embryoid bodies
[2] = system: hES-derived cardiomyocytes; test: Pharmacological response: contraction rate of beating areas of hES-derived cardiomyocytes; type: cell-based, human; conditions: for chronotropic effect: FIG. 5 Panels B to E
Protocol: EBs were plated on to gelatin-coated 24-well plates and allowed to differentiate, as in Example 2. Contracting cardiomyocytes at differentiation day 15-21 were used for examining pharmacological response. The frequency of the spontaneous beating was measured by counting the contraction rate of the beating areas maintained in the differentiation medium in a 37° C. heating chamber of an inverted microscope. The cells were then incubated with test compounds in the incubator for 20-30 min, and observed for contraction rate. Dose-dependent effects were determined by cumulatively applying of increasing concentrations of each substrate. Data represent the mean pulsation rate±standard error of the mean measured on 10-20 beating areas.
Differentiated cells were incubated with various concentrations of the drug and the number of beats per minute was counted. The cells were then washed with medium, maintained in differentiation medium for 24 h and observed for the time taken to recover contractility.

[3] = system: Undifferentiated hES cells of the H7 line; test: Direct differentiation of plated hES cells to contracting cardiomyocytes; type: cell-based, human; conditions: 10 μM at day 10-12 or 12-14; no embryoid body stage
Protocol: Cardiomyocyte differentiation was also achieved in a direct differentiation paradigm. Undifferentiated hES cells of the H7 line were dissociated and plated directly onto gelatin-coated plates without going through an embryoid body stage. The plated cells were cultured in differentiation medium (80% KO-DMEM, 1 mM L-glutamine, 0.1 mM β-mercaptoethanol, 1% amino acids, and 20% fetal bovine serum). Contracting cardiomyocytes were found at day 18 in cultures treated with 10 μM 5-aza-deoxy-cytidine at day 10-12 or 12-14, and at later times in all cultures.

[4] = system: cardiomyogenic cell line developed from bone marrow stroma; conditions: treated for 24 hours; cited from earlier work

For `C[S+](C)[O-]` [DMSO, dimethyl sulfoxide], the “toxicity to the cells” value [1] was “toxic”, the “beating areas compared with non-treated cultures” value ([1]; 0.5% from days 0-4) was “fewer” and the beating cells ([1]; 0.8% or 1%) was “absent”. The “α-MHC expression compared with untreated cultures” value ([1]; DMSO treatment) was “significant reduction”.
In the case of `COc1ccc([C@@H]2Sc3ccccc3N(CCN(C)C)C(=O)[C@@H]2OC(C)=O)cc1` [diltiazem], the “beating areas that stopped contraction” value ([2]; 10^−5 M) is reported as 100%, the “time until contraction recovered to normal levels after removal of the drug” value ([2]; cells washed and kept in differentiation medium) is reported as 24 to 48 h and the beating rate ([2]; various concentrations, incubated 20-30 min, differentiation day 15-21, FIG. 5 Panel A) is reported as “inhibited”.
For `Nc1ncn([C@H]2C[C@H](O)[C@@H](CO)O2)c(=O)n1` [5-aza-deoxy-cytidine], the “proportion of beating areas in the culture” value ([1]; 1 to 10 μM at day 6-8) was “increased”, the “expression of cardiac α-MHC (ratio of αMHC to 18S RNA)” value ([1]; 1 to 10 μM at day 6-8, harvested at day 15) was “significantly increased” and the “day at which contracting cardiomyocytes were found” value [3] was 18 days.
For `Nc1ncn([C@@H]2O[C@H](CO)[C@@H](O)[C@H]2O)c(=O)n1` [5-azacytidine], the “cells forming myotube-like structures, acquiring cardiomyocyte markers and beginning to beat” value [4] is given as 30%.
In the case of `CC(C)NCC(O)c1ccc(O)c(O)c1` (stereo not shown) [isoprenaline], the chronotropic effect [2] is reported as “positive chronotropic effects”.
In the case of `CC(C)(C)NCC(O)c1cc(Cl)c(N)c(Cl)c1` (stereo not shown) [clenbuterol], the “beating rate after treatment” value ([2]; 1-10 nM, cells taken at Day 72, from about 72 beats/min, p<0.005) is reported as “about 98 beats/min”.
For `CC1=C(/C=C/C(C)=C/C=C/C(C)=C/C(=O)O)C(C)(C)CCC1` [RA, all-trans retinoic acid], the “toxicity to the cells” value [1] was “toxic” and the “beating cells compared with untreated cultures” value ([1]; doses between 10^−9 and 10^−5 M, at days 4-8, 8-15, or 4-15) was “no increase”.
With `CNC[C@H](O)c1cccc(O)c1` [phenylephrine] the chronotropic effect [2] was “positive chronotropic effects”.
